Results taken from patent publication US6683077B2, “2-Amino-benzoxazinones for the treatment of viral infections” (G.D. Searle & Co., priority 1996, dated 2004).

System: HCMV engineered virus RC256
Test: microbe, parasite or virus in culture
Format: cell-based, human cytomegalovirus
Settings: Human betaherpesvirus 5, Fibroblast, read-out: Antiviral Activity RC256, first value (EC50)

Row | Structure (SMILES) | EC50 [µM]
1 | Cc1c(CNC(=O)CCc2ccccc2)ccc2nc(N[C@@H](Cc3ccccc3)C(=O)N(C)Cc3cccnc3)oc(=O)c12 [Example 9aa, N-Methyl-αS-[[5-methyl-4-oxo-6-[[(1-oxo-3-phenylpropyl)amino]methyl]-4H-3,1-benzoxazin-2-yl]amino]-N-(3-pyridinylmethyl)benzenepropanamide] | 33
2 | COc1ccc(C[C@H](Nc2nc3ccc(CNC(=O)OCCN(C)C)c(C)c3c(=O)o2)C(=O)N(C)Cc2ccccc2)cc1 [Example 18c, 2-(Dimethylamino)ethyl[[2-[[1S-[(4-methoxyphenyl)methyl]-2-[methyl(phenylmethyl)amino]-2-oxoethyl]amino]-5-methyl-4-oxo-3,1-benzoxazin-6-yl]methyl]carbamate] | 15
3 | COc1ccc(C[C@H](Nc2nc3ccc(NC(=O)OC(C)(C)C)c(C)c3c(=O)o2)C(=O)NCc2ccccn2)cc1 [Example 6gg, 1,1-Dimethylethyl[2-[[1S-[(4-methoxphenyl)methyl]-2-oxo-2-[[(2-pyridinyl)methyl]amino]ethyl]amino]-5-methyl-4-oxo-4H-3,1-benzoxazin-6-yl]carbamate] | 6.5
4 | COc1ccc(C[C@H](Nc2nc3ccc(CNC(=O)OC(C)(C)C)c(C)c3c(=O)o2)C(=O)N2CCOCC2)cc1 [Example 7h, 1,1-Dimethylethyl[[2-[[1S-[(4-methoxyphenyl)methyl]-2-(4-morpholinyl)-2-oxoethyl]amino]-5-methyl-4-oxo-4H-3,1-benzoxazin-6-yl]methyl]carbamate] | 16
5 | COc1ccc(C[C@H](Nc2nc3ccc(CNC(=O)NC(C)(C)C)c(C)c3c(=O)o2)C(=O)N(C)Cc2ccccc2)cc1 [Example 12d, αS-[[6-[[[[(1,1-Dimethylethyl)amino]carbonyl]amino]methyl]-5-methyl-4-oxo-4H-3,1-benzoxazin-2-yl]amino]-4-methoxy-N-methyl-N-(phenylmethyl)benzenepropanamide] | 14
6 | Cc1cccc2nc(N[C@@H](Cc3ccc(O)cc3)C(=O)OC(C)(C)C)oc(=O)c12 [Example 1l, N-(5-Methyl-4-oxo-4H-3,1-benzoxazin-2-yl)-L-tyrosine, 1,1-dimethylethyl ester] | 35
7 | Cc1c(NC(=O)N[C@H](C)c2ccccc2)ccc2nc(N[C@H](C)c3ccccc3)oc(=O)c12 [Example 12c, ^6-[[[[(1R)-Phenylethyl]amino]carbonyl]amino]-5-methyl-2-[[(1R)-phenylethyl]amino]-4H-3,1-benzoxazin-4-one] | 17
8 | COc1ccc(C[C@H](Nc2nc3ccc(CNC(=O)CN4CCCC4)c(C)c3c(=O)o2)C(=O)N(C)Cc2ccccc2)cc1 [Example 9c, N-[[2-[[1S-[(4-Methoxyphenyl)methyl]-2-[methyl(phenylmethyl)amino]-2-oxoethyl]amino]-5-methyl-4-oxo-4H-3,1-benzoxazin-6-yl]methyl]pyrrolidine-1-acetamide] | 9
9 | COc1ccc(C[C@H](Nc2nc3ccc(CNC(=O)CCc4cccnc4)c(C)c3c(=O)o2)C(=O)N(C)Cc2ccccc2)cc1 [Example 9d, N-[[2-[[1S-[(4-Methoxyphenyl)methyl]-2-[methyl(phenylmethyl)amino]-2-oxoethyl]amino]-5-methyl-4-oxo-4H-3,1-benzoxazin-6-yl]methyl]pyridine-3-propanamide] | 41
10 | CCN(CC)C(=O)[C@H](Cc1ccccc1)Nc1nc2ccc(NC(=O)OC(C)(C)C)c(C)c2c(=O)o1 [Example 6ee, 1,1-Dimethylethyl[2-[[2-(diethylamino)-2-oxo-1S-(phenylmethyl)ethyl]amino]-5-methyl-4-oxo-4H-3,1-benzoxazin-6-yl]carbamate] | 26
11 | Cc1c(CNC(=O)OCCN2CCOCC2)ccc2nc(N[C@@H](Cc3ccccc3)C(=O)N(C)Cc3ccccc3)oc(=O)c12 [Example 18h] | 11
12 | COc1ccc(C[C@H](Nc2nc3ccc(CNC(=O)CCc4ccncc4)c(C)c3c(=O)o2)C(=O)N(C)Cc2ccccc2)cc1 [Example 9f, N-[[2-[[1S-[(4-Methoxyphenyl)methyl]-2-[methyl(phenylmethyl)amino]-2-oxoethyl]amino]-5-methyl-4-oxo-4H-3,1-benzoxazin-6-yl]methyl]pyridine-4-propanamide] | 40
13 | Cc1c(NC(=O)OC(C)(C)C)ccc2nc(N[C@@H](Cc3c[nH]c4ccccc34)C(=O)N(C)C)oc(=O)c12 [Example 6o, N-[6-[[(1,1-Dimethylethoxy)carbonyl]amino]-5-methyl-4-oxo-4H-3,1-benzoxazin-2-yl]-L-tryptophan, dimethylamide] | 59
14 | COC(=O)[C@@H](C)Nc1nc2cccc(C)c2c(=O)o1 [Example 1c, N-(5-Methyl-4-oxo-4H-3,1-benzoxazin-2-yl)-D-alanine, methyl ester] | > 100
15 | COc1ccc(C[C@H](Nc2nc3ccc(NC(=O)OC(C)(C)C)c(C)c3c(=O)o2)C(=O)N2CCOCC2)cc1 [Example 6i, N-[6-[[(1,1-Dimethylethoxy)carbonyl]amino]-5-methyl-4-oxo-4H-3,1-benzoxazin-2-yl]-O-methyl-L-tyrosine, morpholineamide] | 48
16 | Cc1c(NC(=O)OC(C)(C)C)ccc2nc(N[C@@H](Cc3ccc(I)cc3)C(=O)N(C)C)oc(=O)c12 [Example 6cc, 1,1-Dimethylethyl[2-[[2-(dimethylamino)-1S-[(4-iodophenyl)methyl]-2-oxoethyl]amino]-5-methyl-4-oxo-4H-3,1-benzoxazin-6-yl]carbamate] | 40

Row | Structure (SMILES) | EC50 [µM]
17 | COC(=O)[C@H](Cc1ccccc1)Nc1nc2ccc(NC(=O)OC(C)(C)C)c(C)c2c(=O)o1 [Example 6a, N-[6-[[(1,1-Dimethylethoxy]carbonyl]amino]-5-methyl-4-oxo-4H-3,1-benzoxazin-2-yl]-L-phenylalanine, methyl ester] | 71
18 | COc1ccc(C[C@H](Nc2nc3cccc(OC)c3c(=O)o2)C(=O)N(C)Cc2ccccc2)cc1 [Example 1u, N-[5-Methoxy-4-oxo-4H-3,1-benzoxazin-2-yl]-O-methyl-L-tyrosine, N-methyl-N-phenylmethylamide] | 14
19 | COc1ccc(C[C@H](Nc2nc3ccc(N(C)C)c(C)c3c(=O)o2)C(=O)N(C)Cc2ccccc2)cc1 [Example 16a, αS-[[6-(Dimethylamino)-5-methyl-4-oxo-4H-3,1-benzoxazin-2-yl]amino]-4-methoxy-N-methyl-N-(phenylmethyl)benzenepropanamide] | 15
20 | Cc1c(CNC(=O)C=Cc2ccccc2)ccc2nc(N[C@@H](Cc3ccccc3)C(=O)N(C)Cc3ccccc3)oc(=O)c12 [Example 9v, N-Methyl-αS-[[5-methyl-6-[[(1-oxo-3-phenyl-2-propenyl)amino]methyl]-4-oxo-4H-3,1-benzoxazin-2-yl]amino]-N-(phenylmethyl)benzenepropanamide] | 26
21 | Cc1c(CNC(=O)OCc2cccnc2)ccc2nc(N[C@@H](Cc3ccccc3)C(=O)N(C)Cc3ccccc3)oc(=O)c12 [Example 18e, 3-Pyridinylmethyl[[5-methyl-2-[[2-[methyl(phenylmethyl)amino]-2-oxo-1S-(phenylmethyl)ethyl]amino]-4-oxo-4H-3,1-benzoxazin-6-yl]methyl]carbamate] | 7
22 | Cc1c(CNC(=O)OC(C)(C)C)ccc2nc(N[C@@H](Cc3ccccc3)C(=O)N(C)Cc3cccnc3)oc(=O)c12 [Example 7s, 1,1-Dimethylethyl[[5-methyl-2-[[2-[methyl[(3-pyridinyl)methyl]amino]-1S-(phenylmethyl)-2-oxoethyl]amino]4-oxo-4H-3,1-benzoxazin-6-yl]methyl]carbamate] | 16
23 | Cc1c(CNC(=O)OCc2ccccc2)ccc2nc(N[C@@H](Cc3ccccc3)C(=O)N(C)Cc3cccnc3)oc(=O)c12 [Example 9z] | 10
24 | COC(=O)[C@H](Cc1ccc(OC)cc1)Nc1nc2cccc(C)c2c(=O)o1 [Example 1r, N-(5-Methyl-4-oxo-4H-3,1-benzoxazin-2-yl)-O-methyl-L-tyrosine, methyl ester] | 59
25 | Cc1c(CNC(=O)CN(C)C)cc(Br)c2nc(N[C@@H](Cc3ccccc3)C(=O)N(C)Cc3ccccc3)oc(=O)c12 [Example 15a, αS-[[8-Bromo-6-[[[2-(dimethylamino)acetyl]amino]methyl]-5-methyl-4-oxo-4H-3,1-benzoxazin-2-yl]amino]-N-methyl-N-(phenylmethyl)benzenepropanamide] | 21
26 | Cc1c(CNC(=O)OCCN(C)C)ccc2nc(N[C@@H](Cc3ccccc3)C(=O)N(C)Cc3ccccc3)oc(=O)c12 [Example 18g, 2-(Dimethylamino)ethyl[[5-methyl-2-[[2-[methyl(phenylmethyl)amino]-2-oxo-1S-(phenylmethyl)ethyl]amino]-4-oxo-4H-3,1-benzoxazin-6-yl]methyl]carbamate] | 13
27 | COC(=O)[C@H](Cc1ccccc1)Nc1nc2ccc(NS(=O)(=O)c3ccccc3)c(C)c2c(=O)o1 [Example 13] | 60
28 | CCOC(=O)Nc1ccc2nc(N[C@@H](Cc3ccc(OC)cc3)C(=O)N(C)Cc3ccccc3)oc(=O)c2c1C [Example 11r, Ethyl[2-[[1S-[(4-methoxyphenyl)methyl]-2-[methyl(phenylmethyl)amino]-2-oxoethyl]amino]-5-methyl-4H-3,1-benzoxazin-6-yl]carbamate] | 12
29 | Cc1cccc2nc(N[C@@H](CCCCNC(=O)OCc3ccccc3)C(=O)OC(C)(C)C)oc(=O)c12 [Example 1i, N^α-(5-Methyl-4-oxo-4H-3,1-benzoxazin-2-yl)-N^ε-[(phenylmethoxy)carbonyl)-L-lysine, 1,1-dimethylethyl ester] | 9
30 | COc1ccc(C[C@H](Nc2nc3ccc(CNC(=O)OCc4cccnc4)c(C)c3c(=O)o2)C(=O)N(C)Cc2ccccc2)cc1 [Example 18, 3-Pyridinylmethyl[[2-[[1S-[(4-methoxyphenyl)methyl]-2-[methyl(phenylmethyl)amino]-2-oxoethyl]amino]-5-methyl-4-oxo-4H-3,1-benzoxazin-6-yl]methyl]carbamate] | 14
31 | COc1ccc(C[C@H](Nc2nc3ccc(CNC(=O)OC(C)(C)C)c(C)c3c(=O)o2)C(=O)N(C)Cc2ccccc2)cc1 [Example 7i, 1,1-Dimethylethyl[[2-[[1S-[(4-methoxyphenyl)methyl]-2-[methyl(phenylmethyl)amino]-2-oxoethyl]amino]-5-methyl-4-oxo-4H-3,1-benzoxazin-6-yl]methyl]carbamate] | 30
